How the values were obtained:
Type in all cases: biochemical
JAK2 = JAK2 (Homo sapiens (Human), UniProt O60674); experiment: JAK kinase assay (HTRF), JAK2; details: catalytic domain, ATP at Km (4 μM)
Procedure: (§1) Human baculovirus-expressed JAK1, 2, 3 and TYK2 were purchased from Carna Biosciences, Inc. All four purified enzymes contain only the catalytic domain. JAK1 (aa 850-1154) and TYK2 (aa 871-1187) are expressed with an N-terminally fused GST-tag, and JAK2 and JAK3 with an N-terminally fused His-tag.
(§2) Inhibition of phosphorylation of a synthetic peptide was measured in an HTRF-based assay using the TK substrate-Biotin from the Cisbio HTRFKinEASE TK kit. First, 2 μl of TK solution (TK substrate-biotin in kinase buffer [1× enzymatic buffer from HTRFKinEASE TK kit, 1 mM DTT]) is added to a plate containing 1 μl prediluted compound (final assay concentration DMSO: 0.75%). Then, 5 μl kinase-ATP mix (prepared in kinase buffer) is added to the wells and the plates are incubated at RT for 20-30 min. For all four kinases a concentration of ATP that corresponded to the Km for ATP was used. The final concentrations of buffers, substrate, kinase and ATP were: JAK1: 50 mM Hepes buffer pH 7.0, 0.01% BSA, 10 mM MgCl2, 1 mM DTT, 7 μM ATP, 50 nM SEB, 1 μM TK Substrate-Biotin and 5 ng JAK1; JAK2: 50 mM Hepes buffer pH 7.0, 0.01% BSA, 5 mM MgCl2, 1 mM DTT, 4 μM ATP, 1 μM TK Substrate-Biotin and 0.1 ng JAK2; JAK3: 50 mM Hepes buffer pH 7.0, 0.01% BSA, 5 mM MgCl2, 1 mM DTT, 2 μM ATP, 1 μM TK Substrate-Biotin and 0.3 ng JAK3; TYK2: 50 mM Hepes buffer pH 7.0, 0.01% BSA, 5 mM MgCl2, 1 mM DTT, 13 μM ATP, 50 nM SEB, 1 μM TK Substrate-Biotin and 0.8 ng TYK2. Thereafter, the kinase reaction is stopped by adding 4 μl detection mix (final concentrations: 50 mM Hepes buffer pH 7.0, 0.01% BSA, 0.8 M KF, 20 mM EDTA, 42 nM Streptavidin-XL665 and 1:400 STK Ab Cryptate) and the plates are incubated overnight in the dark. The HTRF signal is read using an Envision plate reader.

TYK2 = TYK2 (Homo sapiens (Human), UniProt P29597); experiment: JAK kinase assay (HTRF), TYK2; details: catalytic domain, ATP at Km (13 μM)
Procedure: as §1, §2
(§3) In Table 1 selected JAK kinase inhibitory activities are listed along with analytical tR and observed M+H^+ data (UPLC-MS method 7).

JAK1 = JAK1 (Homo sapiens (Human), UniProt P23458); experiment: JAK kinase assay (HTRF), JAK1; details: catalytic domain, ATP at Km (7 μM)
Procedure: as §1, §2

JAK3 = JAK3 (Homo sapiens (Human), UniProt P52333); experiment: JAK kinase assay (HTRF), JAK3; details: catalytic domain, ATP at Km (2 μM)
Procedure: as §1, §2, §3

TYK2, sequence (P29597 871-1187): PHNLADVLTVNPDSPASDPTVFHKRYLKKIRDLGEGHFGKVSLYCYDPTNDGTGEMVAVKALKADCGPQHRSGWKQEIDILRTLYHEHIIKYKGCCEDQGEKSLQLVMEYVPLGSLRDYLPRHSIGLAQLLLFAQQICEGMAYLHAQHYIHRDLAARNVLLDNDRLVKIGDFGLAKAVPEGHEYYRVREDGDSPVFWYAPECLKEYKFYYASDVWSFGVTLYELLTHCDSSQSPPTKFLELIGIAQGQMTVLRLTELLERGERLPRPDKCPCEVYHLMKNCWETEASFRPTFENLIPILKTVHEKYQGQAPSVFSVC
JAK1, sequence (P23458 850-1154): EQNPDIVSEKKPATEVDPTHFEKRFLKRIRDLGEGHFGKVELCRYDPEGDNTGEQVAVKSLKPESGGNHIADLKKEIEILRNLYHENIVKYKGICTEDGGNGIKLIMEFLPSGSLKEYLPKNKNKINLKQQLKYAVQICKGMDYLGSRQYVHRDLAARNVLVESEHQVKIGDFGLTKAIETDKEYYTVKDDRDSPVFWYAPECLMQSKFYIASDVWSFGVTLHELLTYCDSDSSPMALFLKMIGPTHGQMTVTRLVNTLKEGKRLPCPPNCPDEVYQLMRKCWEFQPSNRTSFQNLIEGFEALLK
JAK3, sequence (P52333 822-1111): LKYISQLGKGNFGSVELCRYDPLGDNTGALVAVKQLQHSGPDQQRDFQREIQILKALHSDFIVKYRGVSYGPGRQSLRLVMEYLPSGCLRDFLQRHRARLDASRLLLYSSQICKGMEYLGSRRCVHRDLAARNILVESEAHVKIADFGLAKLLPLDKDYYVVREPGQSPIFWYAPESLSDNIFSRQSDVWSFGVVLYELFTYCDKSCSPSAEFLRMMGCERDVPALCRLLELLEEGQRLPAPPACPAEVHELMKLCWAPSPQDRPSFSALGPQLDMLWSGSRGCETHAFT
JAK2, sequence (O60674 849-1124): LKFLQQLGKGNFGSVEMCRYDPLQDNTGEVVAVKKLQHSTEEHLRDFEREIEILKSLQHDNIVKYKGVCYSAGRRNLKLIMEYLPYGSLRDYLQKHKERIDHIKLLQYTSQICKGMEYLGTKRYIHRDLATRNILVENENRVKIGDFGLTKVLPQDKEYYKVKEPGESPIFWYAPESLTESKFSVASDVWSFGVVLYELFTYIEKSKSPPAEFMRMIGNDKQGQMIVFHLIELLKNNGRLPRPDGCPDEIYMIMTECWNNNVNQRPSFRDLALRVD

Structure (SMILES) | EC50 (JAK2) | EC50 (TYK2) | EC50 (JAK1) | EC50 (JAK3)
COc1cc(C#N)ccc1[C@H](C)NC(=O)[C@H]1CCN(c2ncnc3[nH]ccc23)CC12CC2 [Example 97, (8S)-N-[(1S)-1-(4-cyano-2-methoxy-phenyl)ethyl]-5-(7H-pyrrolo[2,3-d]pyrimidin-4-yl)-5-azaspiro[2.5]octane-8-carboxamide] | 36 nM | 315 nM | 8.7 nM | 226 nM
C[C@@H](NC(=O)C1CCN(c2ncnc3[nH]ccc23)CC12CC2)c1ccccc1 (stereo partly drawn) [Example 136, N-[(1R)-1-phenylethyl]-5-(7H-pyrrolo[2,3-d]pyrimidin-4-yl)-5-azaspiro[2.5]octane-8-carboxamide] | 55.1 nM | 1460 nM | 33.8 nM | 111 nM
COc1cc(CNC(=O)[C@H]2CCN(c3ncnc4[nH]ccc34)CC23CC3)ccc1C#N [Example 93, (8S)-N-[(4-cyano-3-methoxy-phenyl)methyl]-5-(7H-pyrrolo[2,3-d]pyrimidin-4-yl)-5-azaspiro[2.5]octane-8-carboxamide] | 29.3 nM | 118 nM | 8.5 nM | 74.1 nM
O=C(N[C@H](CO)C(=O)OCc1ccccc1)[C@H]1CCN(c2ncnc3[nH]ccc23)CC12CC2 [Example 80, benzyl (2R)-3-hydroxy-2-[[(8S)-5-(7H-pyrrolo[2,3-d]pyrimidin-4-yl)-5-azaspiro[2.5]octane-8-carbonyl]amino]propanoate] | 21.8 nM | 119 nM | 6.7 nM | 24.3 nM
O=C(N[C@H](CO)C1CCC1)[C@H]1CCN(c2ncnc3[nH]ccc23)CC12CC2 [Example 147, (8S)-N-[(1S)-1-cyclobutyl-2-hydroxy-ethyl]-5-(7H-pyrrolo[2,3-d]pyrimidin-4-yl)-5-azaspiro[2.5]octane-8-carboxamide] | 121 nM | 914 nM | 68.1 nM | 162 nM
Cc1cc([C@H](O)[C@H](C)NC(=O)[C@H]2CCN(c3ncnc4[nH]ccc34)CC23CC3)ncc1F [Example 75, (8S)-N-[(1S,2R)-2-(5-fluoro-4-methyl-2-pyridyl)-2-hydroxy-1-methyl-ethyl]-5-(7H-pyrrolo[2,3-d]pyrimidin-4-yl)-5-azaspiro[2.5]octane-8-carboxamide] | 16.3 nM | 50.2 nM | 6.1 nM | 102 nM
O=C(N[C@H](CO)c1ccccn1)[C@H]1CCN(c2ncnc3[nH]ccc23)CC12CC2 [Example 135, (8S)-N-[(1S)-2-hydroxy-1-(2-pyridyl)ethyl]-5-(7H-pyrrolo[2,3-d]pyrimidin-4-yl)-5-azaspiro[2.5]octane-8-carboxamide] | 83.8 nM | 466 nM | 33.2 nM | 148 nM
O=C(NCC1(O)CCCC1)C1CCN(c2ncnc3[nH]ccc23)CC12CC2 (stereo not drawn) [Example 88, N-[(1-hydroxycyclopentyl)methyl]-5-(7H-pyrrolo[2,3-d]pyrimidin-4-yl)-5-azaspiro[2.5]octane-8-carboxamide] | 23.7 nM | 407 nM | 7.2 nM | 58.6 nM
C[C@@H](NC(=O)[C@H]1CCN(c2ncnc3[nH]ccc23)CC12CC2)[C@@H](O)c1ccc(C#N)cc1 [Example 146, (8S)-N-[(1R,2S)-2-(4-cyanophenyl)-2-hydroxy-1-methyl-ethyl]-5-(7H-pyrrolo[2,3-d]pyrimidin-4-yl)-5-azaspiro[2.5]octane-8-carboxamide] | 188 nM | 1840 nM | 67.7 nM | 266 nM
O=C(N[C@@H](CO)Cc1ccccc1)C1CCN(c2ncnc3[nH]ccc23)CC12CC2 (stereo partly drawn) [Example 137, N-[(1R)-1-benzyl-2-hydroxy-ethyl]-5-(7H-pyrrolo[2,3-d]pyrimidin-4-yl)-5-azaspiro[2.5]octane-8-carboxamide] | 30.5 nM | 1380 nM | 38 nM | 91.6 nM
O=C(N[C@H](CO)C1CCCCC1)[C@H]1CCN(c2ncnc3[nH]ccc23)CC12CC2 [Example 132, (8S)-N-[(1S)-1-cyclohexyl-2-hydroxy-ethyl]-5-(7H-pyrrolo[2,3-d]pyrimidin-4-yl)-5-azaspiro[2.5]octane-8-carboxamide] | 94.5 nM | 665 nM | 25.3 nM | 162 nM
COc1cc(C#N)ccc1CNC(=O)[C@H]1CCN(c2ncnc3[nH]ccc23)CC12CC2 [Example 71, (8S)-N-[(4-cyano-2-methoxy-phenyl)methyl]-5-(7H-pyrrolo[2,3-d]pyrimidin-4-yl)-5-azaspiro[2.5]octane-8-carboxamide] | 14.2 nM | 121 nM | 5.8 nM | 63.1 nM
O=C(NCC1(CO)CC(F)(F)C1)[C@H](O)CNC(=O)[C@H]1CCN(c2ncnc3[nH]ccc23)CC12CC2 [Example 129, (8S)-N-[(2R)-3-[[3,3-difluoro-1-(hydroxymethyl)cyclobutyl]methylamino]-2-hydroxy-3-oxo-propyl]-5-(7H-pyrrolo[2,3-d]pyrimidin-4-yl)-5-azaspiro[2.5]octane-8-carboxamide] | 37.6 nM | 385 nM | 21.2 nM | 41.1 nM
CCc1cc(C#N)ccc1[C@H](CO)NC(=O)[C@H]1CCN(c2ncnc3[nH]ccc23)CC12CC2 [Example 89, (8S)-N-[(1R)-1-(4-cyano-2-ethyl-phenyl)-2-hydroxy-ethyl]-5-(7H-pyrrolo[2,3-d]pyrimidin-4-yl)-5-azaspiro[2.5]octane-8-carboxamide] | 31 nM | 284 nM | 7.5 nM | 53.7 nM
C[C@](CO)(NC(=O)[C@H]1CCN(c2ncnc3[nH]ccc23)CC12CC2)c1ccc(C#N)cn1 [Example 78, (8S)-N-[(1S)-1-(5-cyano-2-pyridyl)-2-hydroxy-1-methyl-ethyl]-5-(7H-pyrrolo[2,3-d]pyrimidin-4-yl)-5-azaspiro[2.5]octane-8-carboxamide] | 17 nM | 231 nM | 6.3 nM | 39.4 nM
C[C@H](NC(=O)[C@H]1CCN(c2ncnc3[nH]ccc23)CC12CC2)[C@H](O)c1ccc(C#N)cc1 [Example 126, (8S)-N-[(1S,2R)-2-(4-cyanophenyl)-2-hydroxy-1-methyl-ethyl]-5-(7H-pyrrolo[2,3-d]pyrimidin-4-yl)-5-azaspiro[2.5]octane-8-carboxamide] | 25.7 nM | 987 nM | 19.5 nM | 29.8 nM
O=C(N[C@H](CO)C(=O)OCC1(CO)CC1)[C@H]1CCN(c2ncnc3[nH]ccc23)CC12CC2 [Example 116, [1-(hydroxymethyl)cyclopropyl]methyl (2R)-3-hydroxy-2-[[(8S)-5-(7H-pyrrolo[2,3-d]pyrimidin-4-yl)-5-azaspiro[2.5]octane-8-carbonyl]amino]propanoate] | 24.7 nM | 210 nM | 12.4 nM | 47.8 nM
N#CCC1(CNC(=O)C2CCN(c3ncnc4[nH]ccc34)CC23CC3)CC1 (stereo not drawn) [Example 112, N-[[1-(cyanomethyl)cyclopropyl]methyl]-5-(7H-pyrrolo[2,3-d]pyrimidin-4-yl)-5-azaspiro[2.5]octane-8-carboxamide] | 32.7 nM | 518 nM | 11.3 nM | 46 nM

From patent publication US10799507B2, “5-(7H-pyrrolo[2,3-d]pyrimidin-4-yl)-5-azaspiro[2.5]octane-8-carboxylic acid derivatives as novel JAK kinase inhibitors” (LEO Pharma A/S, priority 2017, dated 2020)
